Active and inactive are the calls of the source. No cut-off for these calls is given here.
How the values were obtained:
[1] = tested on: Streptococcus agalactiae; assay: Antibacterial activity against Streptococcus agalactiae group B ATCC 12386 after overnight incubation by photometric method; format: functional
[2] = tested on: Enterococcus faecalis; assay: Antibacterial activity against Enterococcus faecalis ATCC 29212 after overnight incubation by photometric method; format: functional
[3] = tested on: Pseudomonas aeruginosa; assay: microbe, parasite or virus in culture; settings: ATCC 27853
Description: Antibacterial activity against Pseudomonas aeruginosa ATCC 27853 after overnight incubation by photometric method

[4] = tested on: Escherichia coli; assay: microbe, parasite or virus in culture; settings: ATCC 25922
Description: Antibacterial activity against Escherichia coli ATCC 25922 after overnight incubation by photometric method

[5] = tested on: Staphylococcus aureus; assay: Antibacterial activity against Staphylococcus aureus ATCC 25923 after overnight incubation by photometric method; format: functional
[6] = tested on: Staphylococcus epidermidis; assay: Inhibition of biofilm formation in Staphylococcus epidermidis at 50 ug/ml after overnight incubation by crystal violet staining based method; format: functional
[7] = tested on: MRC5; assay: Cytotoxicity against human MRC5 cells at <50 ug/ml; format: cell-based
[8] = tested on: Enterococcus faecalis; assay: Antibacterial activity against Enterococcus faecalis ATCC 29212 at 50 ug/ml after overnight incubation by photometric method; format: functional
[9] = tested on: Escherichia coli; assay: Antibacterial activity against Escherichia coli ATCC 25922 at 50 ug/ml after overnight incubation by photometric method; format: functional
[10] = tested on: Pseudomonas aeruginosa; assay: Antibacterial activity against Pseudomonas aeruginosa ATCC 27853 at 50 ug/ml after overnight incubation by photometric method; format: functional

Compound: CCCCCCCOc1ccc(-n2cc(CCCN)nn2)cc1.Cl
- MIC [1]: 8 µg/mL
- MIC [2]: 16 µg/mL
- MIC [3]: 16 µg/mL
- MIC [4]: 8 µg/mL
- MIC [5]: 16 µg/mL

Compound: CC(C)(C)c1cc(Cn2cc(CCCNC(=N)N)nn2)cc(C(C)(C)C)c1.Cl
- MIC [1]: 10 µg/mL
- biofilm formation inhibition (active/not active) [6]: Active
- Activity [7]: Non-Toxic
- MIC [2]: 40 µg/mL
- MIC [3]: 40 µg/mL
- MIC [4]: 40 µg/mL
- MIC [5]: 10 µg/mL

Compound: CN(C)CCc1cn(Cc2cc(C(F)(F)F)cc(C(F)(F)F)c2)nn1.Cl
- Activity [7]: Non-Toxic

Compound: Cl.NCCc1cn(Cc2ccccc2)nn1
- Activity [7]: Non-Toxic

Compound: CC(C)(C)c1cc(-n2cc(CCCNC(=N)N)nn2)cc(C(C)(C)C)c1.Cl
- MIC [1]: 4 µg/mL
- MIC [2]: 16 µg/mL
- MIC [3]: 16 µg/mL
- MIC [4]: 16 µg/mL
- MIC [5]: 4 µg/mL

Compound: Cl.NCCc1cn(Cc2cc(C(F)(F)F)cc(C(F)(F)F)c2)nn1
- Activity [7]: Non-Toxic

Compound: CCCCCCCOc1ccc(-n2cc(CCCNC(=N)N)nn2)cc1.Cl
- MIC [1]: 4 µg/mL
- MIC [2]: 8 µg/mL
- MIC [3]: 8 µg/mL
- MIC [4]: 8 µg/mL
- MIC [5]: 4 µg/mL

Compound: Cl.N=C(N)NCCCc1cn(Cc2cc(C(F)(F)F)cc(C(F)(F)F)c2)nn1
- Activity [7]: Non-Toxic

Compound: CN(C)CCc1cn(Cc2ccc3ccccc3c2)nn1.Cl
- Activity [7]: Non-Toxic

Compound: Cl.NCCCc1cn(Cc2ccccc2)nn1
- Activity [7]: Non-Toxic

Compound: Cl.NCCCc1cn(Cc2ccc3ccccc3c2)nn1
- Activity [7]: Non-Toxic

Compound: CN(C)CCCc1cn(Cc2cc(C(F)(F)F)cc(C(F)(F)F)c2)nn1.Cl
- Activity [7]: Non-Toxic

Compound: Cl.N=C(N)NCCc1cn(Cc2ccc3ccccc3c2)nn1
- Activity [7]: Non-Toxic

Compound: Cl.NCCCc1cn(Cc2cc(C(F)(F)F)cc(C(F)(F)F)c2)nn1
- Activity [7]: Non-Toxic

Compound: CN(C)CCCc1cn(Cc2cc(C(C)(C)C)cc(C(C)(C)C)c2)nn1.Cl
- Activity [8]: inactive
- MIC [1]: 50 µg/mL
- biofilm formation inhibition (active/not active) [6]: Active
- Activity [7]: Non-Toxic
- Activity [9]: inactive
- Activity [10]: inactive
- MIC [5]: 40 µg/mL

Compound: CC(C)(C)c1cc(-n2cc(CCCN)nn2)cc(C(C)(C)C)c1.Cl
- MIC [1]: 16 µg/mL
- MIC [2]: 32 µg/mL
- MIC [3]: 32 µg/mL
- MIC [4]: 16 µg/mL
- MIC [5]: 16 µg/mL

Compound: CN(C)CCc1cn(Cc2cc(C(C)(C)C)cc(C(C)(C)C)c2)nn1.Cl
- biofilm formation inhibition (active/not active) [6]: Active
- Activity [7]: Non-Toxic

Compound: Cl.NCCc1cn(Cc2ccc3ccccc3c2)nn1
- Activity [7]: Non-Toxic

Compound: CN(C)CCCc1cn(Cc2ccccc2)nn1.Cl
- Activity [7]: Non-Toxic

Compound: CC(C)(C)c1cc(Cn2cc(CCCN)nn2)cc(C(C)(C)C)c1.Cl
- biofilm formation inhibition (active/not active) [6]: inactive
- Activity [7]: Non-Toxic

Compound: CN(C)CCc1cn(Cc2ccccc2)nn1.Cl
- Activity [7]: Non-Toxic

Compound: Cl.N=C(N)NCCc1cn(Cc2cc(C(F)(F)F)cc(C(F)(F)F)c2)nn1
- Activity [7]: Non-Toxic

Compound: CN(C)CCCc1cn(Cc2ccc3ccccc3c2)nn1.Cl
- Activity [7]: Non-Toxic

Compound: GENTAMICIN
- MIC [1]: 4 µg/mL
- MIC [2]: 10 µg/mL
- MIC [5]: 0.13 µg/mL

Compound: Cl.N=C(N)NCCCc1cn(Cc2ccccc2)nn1
- Activity [7]: Non-Toxic

Compound: CC(C)(C)c1cc(Cn2cc(CCNC(=N)N)nn2)cc(C(C)(C)C)c1.Cl
- MIC [1]: 10 µg/mL
- biofilm formation inhibition (active/not active) [6]: Active
- Activity [7]: Non-Toxic
- MIC [2]: 40 µg/mL
- MIC [3]: 40 µg/mL
- MIC [4]: 50 µg/mL
- MIC [5]: 20 µg/mL

Compound: Cl.N=C(N)NCCCc1cn(Cc2ccc3ccccc3c2)nn1
- biofilm formation inhibition (active/not active) [6]: Active
- Activity [7]: Non-Toxic

Compound: CC(C)(C)c1cc(Cn2cc(CCN)nn2)cc(C(C)(C)C)c1.Cl
- Activity [8]: inactive
- MIC [1]: 40 µg/mL
- biofilm formation inhibition (active/not active) [6]: Active
- Activity [7]: Non-Toxic
- MIC [3]: 50 µg/mL
- MIC [4]: 40 µg/mL
- MIC [5]: 40 µg/mL

Compound: Cl.N=C(N)NCCc1cn(Cc2ccccc2)nn1
- Activity [7]: Non-Toxic
